system: Candida albicans; test: Antifungal activity against Candida albicans ATCC 10231 at 10 ug/ml after 48 hrs by cup plate method; assay type: functional; conditions: ATCC 10231, 48 h

| Compound | inhibition at 10 µg/mL |
| --- | --- |
| O=C(NCc1ccccc1)c1ccc2[nH]nnc2c1 | 4.16% |
| OC(Cn1cncn1)(Cn1cncn1)c1ccc(F)cc1F [FLUCONAZOLE] | 12.5% |
| Cc1ccccc1OCc1ccc2[nH]nnc2c1 | 0% |
| Cc1ccccc1NC(=O)c1ccc2[nH]nnc2c1 | 4.16% |
| c1ccc(CNCc2ccc3[nH]nnc3c2)cc1 | 12.5% |
| Cc1ccccc1NCc1ccc2[nH]nnc2c1 | 0% |
| CCCCNCc1ccc2[nH]nnc2c1 | 12.5% |
| CCCCNC(=O)c1ccc2[nH]nnc2c1 | 4.16% |
| Cc1ccccc1NCn1nnc2ccccc21 | 0% |

system: Candida albicans; test: Antifungal activity against Candida albicans ATCC 10231 at 50 ug/ml after 48 hrs by cup plate method; assay type: functional; conditions: ATCC 10231, 48 h

| Compound | inhibition at 50 µg/mL |
| --- | --- |
| O=C(NCc1ccccc1)c1ccc2[nH]nnc2c1 | 28.5% |
| OC(Cn1cncn1)(Cn1cncn1)c1ccc(F)cc1F [FLUCONAZOLE] | 30% |
| Cc1ccccc1OCc1ccc2[nH]nnc2c1 | 36.4% |
| Cc1ccccc1NC(=O)c1ccc2[nH]nnc2c1 | 23.7% |
| c1ccc(CNCc2ccc3[nH]nnc3c2)cc1 | 27.4% |
| Cc1ccccc1NCc1ccc2[nH]nnc2c1 | 34.2% |
| CCCCNCc1ccc2[nH]nnc2c1 | 30% |
| CCCCNC(=O)c1ccc2[nH]nnc2c1 | 27.4% |
| Cc1ccccc1NCn1nnc2ccccc21 | 4.16% |

system: Candida albicans; test: Antifungal activity against Candida albicans ATCC 10231 at 100 ug/ml after 48 hrs by cup plate method; assay type: functional; conditions: ATCC 10231, 48 h

| Compound | inhibition at 100 µg/mL |
| --- | --- |
| O=C(NCc1ccccc1)c1ccc2[nH]nnc2c1 | 54.1% |
| OC(Cn1cncn1)(Cn1cncn1)c1ccc(F)cc1F [FLUCONAZOLE] | 65.5% |
| Cc1ccccc1OCc1ccc2[nH]nnc2c1 | 66.1% |
| Cc1ccccc1NC(=O)c1ccc2[nH]nnc2c1 | 58.4% |
| c1ccc(CNCc2ccc3[nH]nnc3c2)cc1 | 67.7% |
| Cc1ccccc1NCc1ccc2[nH]nnc2c1 | 67.7% |
| CCCCNCc1ccc2[nH]nnc2c1 | 64.3% |
| CCCCNC(=O)c1ccc2[nH]nnc2c1 | 54.3% |
| Cc1ccccc1NCn1nnc2ccccc21 | 50.2% |

target: T1, Lanosterol 14-alpha demethylase (Candida albicans (strain SC5314 / ATCC MYA-2876) (Yeast), UniProt P10613); test: Inhibition of Candida albicans lanosterol 14-alpha demethylase assessed as reduction of ergosterol biosynthesis at 10 ug/ml after 18 hrs by UV spectroscopy analysis; conditions: not given
T1 sequence (P10613 whole entry): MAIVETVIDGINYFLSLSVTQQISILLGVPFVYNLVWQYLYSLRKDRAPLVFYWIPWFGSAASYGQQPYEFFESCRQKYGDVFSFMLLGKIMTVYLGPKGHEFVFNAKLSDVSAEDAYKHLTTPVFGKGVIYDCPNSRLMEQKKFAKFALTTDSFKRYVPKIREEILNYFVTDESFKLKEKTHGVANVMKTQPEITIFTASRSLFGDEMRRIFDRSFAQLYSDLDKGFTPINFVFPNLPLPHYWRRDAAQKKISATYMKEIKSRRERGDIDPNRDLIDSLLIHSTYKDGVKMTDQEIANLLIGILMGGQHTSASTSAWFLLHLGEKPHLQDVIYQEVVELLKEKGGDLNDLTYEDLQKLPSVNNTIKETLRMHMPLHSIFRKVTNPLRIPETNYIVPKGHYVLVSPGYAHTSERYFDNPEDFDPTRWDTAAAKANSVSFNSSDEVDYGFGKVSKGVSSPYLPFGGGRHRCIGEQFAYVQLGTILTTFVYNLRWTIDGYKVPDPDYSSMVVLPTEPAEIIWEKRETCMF

| Compound | inhibition at 10 µg/mL |
| --- | --- |
| O=C(NCc1ccccc1)c1ccc2[nH]nnc2c1 | 15.9% |
| OC(Cn1cncn1)(Cn1cncn1)c1ccc(F)cc1F [FLUCONAZOLE] | 45.5% |
| Cc1ccccc1OCc1ccc2[nH]nnc2c1 | 50.5% |
| Cc1ccccc1NC(=O)c1ccc2[nH]nnc2c1 | 12.6% |
| c1ccc(CNCc2ccc3[nH]nnc3c2)cc1 | 46.5% |
| Cc1ccccc1NCc1ccc2[nH]nnc2c1 | 49.9% |
| CCCCNCc1ccc2[nH]nnc2c1 | 1.55% |
| CCCCNC(=O)c1ccc2[nH]nnc2c1 | 7.91% |
| Cc1ccccc1NCn1nnc2ccccc21 | 11.6% |

target: T1, Lanosterol 14-alpha demethylase; test: Inhibition of Candida albicans lanosterol 14-alpha demethylase assessed as reduction of ergosterol biosynthesis at 50 ug/ml after 18 hrs by UV spectroscopy analysis; conditions: not given

| Compound | inhibition at 50 µg/mL |
| --- | --- |
| O=C(NCc1ccccc1)c1ccc2[nH]nnc2c1 | 33.1% |
| OC(Cn1cncn1)(Cn1cncn1)c1ccc(F)cc1F [FLUCONAZOLE] | 47.7% |
| Cc1ccccc1OCc1ccc2[nH]nnc2c1 | 54% |
| Cc1ccccc1NC(=O)c1ccc2[nH]nnc2c1 | 35.7% |
| c1ccc(CNCc2ccc3[nH]nnc3c2)cc1 | 48.5% |
| Cc1ccccc1NCc1ccc2[nH]nnc2c1 | 65.8% |
| CCCCNCc1ccc2[nH]nnc2c1 | 45.5% |
| CCCCNC(=O)c1ccc2[nH]nnc2c1 | 22.7% |
| Cc1ccccc1NCn1nnc2ccccc21 | 29.4% |

target: T1, Lanosterol 14-alpha demethylase; test: Inhibition of Candida albicans lanosterol 14-alpha demethylase assessed as reduction of ergosterol biosynthesis at 100 ug/ml after 18 hrs by UV spectroscopy analysis; conditions: not given

| Compound | inhibition at 100 µg/mL |
| --- | --- |
| O=C(NCc1ccccc1)c1ccc2[nH]nnc2c1 | 41.3% |
| OC(Cn1cncn1)(Cn1cncn1)c1ccc(F)cc1F [FLUCONAZOLE] | 51.2% |
| Cc1ccccc1OCc1ccc2[nH]nnc2c1 | 54.4% |
| Cc1ccccc1NC(=O)c1ccc2[nH]nnc2c1 | 42.5% |
| c1ccc(CNCc2ccc3[nH]nnc3c2)cc1 | 66% |
| Cc1ccccc1NCc1ccc2[nH]nnc2c1 | 65.8% |
| CCCCNCc1ccc2[nH]nnc2c1 | 47.8% |
| CCCCNC(=O)c1ccc2[nH]nnc2c1 | 38.1% |
| Cc1ccccc1NCn1nnc2ccccc21 | 31.3% |

From ChEMBL document CHEMBL3603775, “Design, synthesis and evaluation of benzotriazole derivatives as novel antifungal agents” (Bioorg Med Chem Lett, 2015)
